Assay results from patent publication US12209087B2, “AKT1 modulators” (Alterome Therapeutics, Inc., priority 2022, dated 2025).

Target: T1, full length AKT E17K (Homo sapiens, UniProt P31749, E17K)
T1 construct: host or cells: HEK-293 (ATCC CRL-1573)
Assay: NanoBRET Target Engagement (TE) Assay
Type: cell-based
Conditions: competitive tracer displacement in living cells, read-out: AKT1 E17K IC50
Outline: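 Compound and tracer incubated 2 h before luminescence at donor 450 nm and acceptor 600 nm, with extracellular signal inhibited. EC50 by sigmoidal variable-slope regression.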

T1 sequence (P31749 whole entry E17K): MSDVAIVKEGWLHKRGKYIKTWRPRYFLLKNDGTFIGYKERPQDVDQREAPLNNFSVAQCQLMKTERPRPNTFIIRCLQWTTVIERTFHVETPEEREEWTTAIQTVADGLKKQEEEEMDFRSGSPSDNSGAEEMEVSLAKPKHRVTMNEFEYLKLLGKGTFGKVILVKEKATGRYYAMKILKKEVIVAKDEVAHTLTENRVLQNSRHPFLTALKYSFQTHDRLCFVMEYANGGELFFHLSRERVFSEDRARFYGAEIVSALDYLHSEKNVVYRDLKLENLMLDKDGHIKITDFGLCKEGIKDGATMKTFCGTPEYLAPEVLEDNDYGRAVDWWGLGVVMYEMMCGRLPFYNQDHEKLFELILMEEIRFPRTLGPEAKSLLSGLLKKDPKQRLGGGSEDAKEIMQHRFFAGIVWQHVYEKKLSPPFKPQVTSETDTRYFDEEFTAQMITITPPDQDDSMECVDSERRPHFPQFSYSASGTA

| Structure (SMILES) | IC50 |
| --- | --- |
| N#Cc1ccnc(N2CCN(Cc3ccc(-n4c(-c5cccnc5N)nc5ccc(-c6ccccc6)nc54)cc3)CC2)n1 [Example 68, 2-(4-(4-(2-(2-Aminopyridin-3-yl)-5-phenyl-3H-imidazo[4,5-b]pyridin-3-yl)benzyl)piperazin-1-yl)pyrimidine-4-carbonitrile] | < 0.015 µM |
| N#Cc1cccc(C(=O)N2CCN(Cc3ccc(-n4c(-c5cccnc5N)nc5cccnc54)cc3)CC2)n1 [Example 69, 6-(4-(4-(2-(2-Aminopyridin-3-yl)-3H-imidazo[4,5-b]pyridin-3-yl)benzyl)piperazine-1-carbonyl)picolinonitrile] | 0.6 to 10 µM |
| N#Cc1nnccc1C(=O)N1CCN(Cc2ccc(-n3c(-c4cccnc4N)nc4ccc(-c5ccccc5)nc43)cc2)CC1 [Example 70, 4-(4-(4-(2-(2-Aminopyridin-3-yl)-5-phenyl-3H-imidazo[4,5-b]pyridin-3-yl)benzyl)piperazine-1-carbonyl)pyridazine-3-carbonitrile] | 0.06 to 0.6 µM |
| N#Cc1nnccc1C(=O)NC1CCN(Cc2ccc(-n3c(-c4cccnc4N)nc4ccc(-c5ccccc5)nc43)cc2)CC1 [Example 71, N-(1-(4-(2-(2-Aminopyridin-3-yl)-5-phenyl-3H-imidazo[4,5-b]pyridin-3-yl)benzyl)piperidin-4-yl)-3-cyanopyridazine-4-carboxamide] | 0.015 to 0.06 µM |
| N#Cc1cncnc1C(=O)N1CCN(Cc2ccc(-n3c(-c4cccnc4N)nc4ccc(-c5ccccc5)nc43)cc2)CC1 [Example 72, 4-(4-(4-(2-(2-Aminopyridin-3-yl)-5-phenyl-3H-imidazo[4,5-b]pyridin-3-yl)benzyl)piperazine-1-carbonyl)pyrimidine-5-carbonitrile] | 0.6 to 10 µM |
| N#Cc1cncnc1C(=O)NC1CCN(Cc2ccc(-n3c(-c4cccnc4N)nc4ccc(-c5ccccc5)nc43)cc2)CC1 [Example 73, N-(1-(4-(2-(2-Aminopyridin-3-yl)-5-phenyl-3H-imidazo[4,5-b]pyridin-3-yl)benzyl)piperidin-4-yl)-5-cyanopyrimidine-4-carboxamide] | 0.015 to 0.06 µM |
| N#Cc1cncc(NC2CCN(Cc3ccc(-n4c(-c5cccnc5N)nc5cccnc54)cc3)CC2)c1 [Example 74, 5-((1-(4-(2-(2-Aminopyridin-3-yl)-3H-imidazo[4,5-b]pyridin-3-yl)benzyl)piperidin-4-yl)amino)nicotinonitrile] | 0.6 to 10 µM |
| N#Cc1ccnc(NC2CCN(Cc3ccc(-n4c(-c5cccnc5N)nc5cccnc54)cc3)CC2)c1 [Example 75, 2-((1-(4-(2-(2-Aminopyridin-3-yl)-3H-imidazo[4,5-b]pyridin-3-yl)benzyl)piperidin-4-yl)amino)isonicotinonitrile] | 0.6 to 10 µM |
| N#Cc1cncc(NC2CCN(Cc3ccc(-n4c(-c5cccnc5N)nc5cccnc54)cc3)CC2)n1 [Example 76, 6-((1-(4-(2-(2-Aminopyridin-3-yl)-3H-imidazo[4,5-b]pyridin-3-yl)benzyl)piperidin-4-yl)amino)pyrazine-2-carbonitrile] | 0.6 to 10 µM |
| N#Cc1ccnc(NC2CCN(Cc3ccc(-n4c(-c5cccnc5N)nc5cccnc54)cc3)CC2)n1 [Example 77, 2-((1-(4-(2-(2-Aminopyridin-3-yl)-3H-imidazo[4,5-b]pyridin-3-yl)benzyl)piperidin-4-yl)amino)pyrimidine-4-carbonitrile] | 0.06 to 0.6 µM |
| N#Cc1cc(N2CCN(Cc3ccc(-n4c(-c5cccnc5N)nc5ccc(-c6ccccc6)nc54)cc3)CC2)ncn1 [Example 78, 6-(4-(4-(2-(2-Aminopyridin-3-yl)-5-phenyl-3H-imidazo[4,5-b]pyridin-3-yl)benzyl)piperazin-1-yl)pyrimidine-4-carbonitrile] | < 0.015 µM |
| N#Cc1cncc(C(=O)N2CCN(Cc3ccc(-n4c(-c5cccnc5N)nc5cccnc54)cc3)CC2)c1 [Example 79, 5-(4-(4-(2-(2-Aminopyridin-3-yl)-3H-imidazo[4,5-b]pyridin-3-yl)benzyl)piperazine-1-carbonyl)nicotinonitrile] | 0.6 to 10 µM |
| N#Cc1ccc(C(=O)N2CCN(Cc3ccc(-n4c(-c5cccnc5N)nc5cccnc54)cc3)CC2)nc1 [Example 80, 6-(4-(4-(2-(2-Aminopyridin-3-yl)-3H-imidazo[4,5-b]pyridin-3-yl)benzyl)piperazine-1-carbonyl)nicotinonitrile] | 0.6 to 10 µM |
| N#Cc1ccc(C(=O)NC2CCN(Cc3ccc(-n4c(-c5cccnc5N)nc5ccc(-c6ccccc6)nc54)cc3)CC2)nc1 [Example 81, N-(1-(4-(2-(2-Aminopyridin-3-yl)-5-phenyl-3H-imidazo[4,5-b]pyridin-3-yl)benzyl)piperidin-4-yl)-5-cyanopicolinamide] | 0.06 to 0.6 µM |
| N#Cc1cc(N2CCN(Cc3ccc(-n4c(-c5cccnc5N)nc5ccc(-c6ccccc6)nc54)cc3)CC2)ccn1 [Example 82, 4-(4-(4-(2-(2-Aminopyridin-3-yl)-5-phenyl-3H-imidazo[4,5-b]pyridin-3-yl)benzyl)piperazin-1-yl)picolinonitrile] | 0.015 to 0.06 µM |
| N#Cc1cccc(N2CCN(Cc3ccc(-n4c(-c5cccnc5N)nc5ccc(-c6ccccc6)nc54)cc3)CC2)n1 [Example 83, 6-(4-(4-(2-(2-Aminopyridin-3-yl)-5-phenyl-3H-imidazo[4,5-b]pyridin-3-yl)benzyl)piperazin-1-yl)picolinonitrile] | 0.06 to 0.6 µM |

| Structure (SMILES) | IC50 |
| --- | --- |
| N#Cc1ccc(NC2CCN(Cc3ccc(-n4c(-c5cccnc5N)nc5ccc(-c6ccccc6)nc54)cc3)CC2)cn1 [Example 84, 5-((1-(4-(2-(2-Aminopyridin-3-yl)-5-phenyl-3H-imidazo[4,5-b]pyridin-3-yl)benzyl)piperidin-4-yl)amino)picolinonitrile] | 0.015 to 0.06 µM |
| N#Cc1cc(NC2CCN(Cc3ccc(-n4c(-c5cccnc5N)nc5ccc(-c6ccccc6)nc54)cc3)CC2)ccn1 [Example 85, 4-((1-(4-(2-(2-Aminopyridin-3-yl)-5-phenyl-3H-imidazo[4,5-b]pyridin-3-yl)benzyl)piperidin-4-yl)amino)picolinonitrile] | < 0.015 µM |
| N#Cc1cccc(NC2CCN(Cc3ccc(-n4c(-c5cccnc5N)nc5ccc(-c6ccccc6)nc54)cc3)CC2)n1 [Example 86, 6-((1-(4-(2-(2-Aminopyridin-3-yl)-5-phenyl-3H-imidazo[4,5-b]pyridin-3-yl)benzyl)piperidin-4-yl)amino)picolinonitrile] | 0.06 to 0.6 µM |
| N#Cc1ccnc(NC2CCN(Cc3ccc(-n4c(-c5cccnc5N)nc5ccc(-c6ccccc6)nc54)cc3)CC2)c1 [Example 87, 2-((1-(4-(2-(2-Aminopyridin-3-yl)-5-phenyl-3H-imidazo[4,5-b]pyridin-3-yl)benzyl)piperidin-4-yl)amino)isonicotinonitrile] | 0.06 to 0.6 µM |
| N#Cc1nccc(NC2CCN(Cc3ccc(-n4c(-c5cccnc5N)nc5ccc(-c6ccccc6)nc54)cc3)CC2)n1 [Example 88, 4-((1-(4-(2-(2-Aminopyridin-3-yl)-5-phenyl-3H-imidazo[4,5-b]pyridin-3-yl)benzyl)piperidin-4-yl)amino)pyrimidine-2-carbonitrile] | < 0.015 µM |
| N#Cc1cncc(NC2CCN(Cc3ccc(-n4c(-c5cccnc5N)nc5ccc(-c6ccccc6)nc54)cc3)CC2)n1 [Example 89, 6-((1-(4-(2-(2-Aminopyridin-3-yl)-5-phenyl-3H-imidazo[4,5-b]pyridin-3-yl)benzyl)piperidin-4-yl)amino)pyrazine-2-carbonitrile] | < 0.015 µM |
| N#Cc1ccnc(NC2CCN(Cc3ccc(-n4c(-c5cccnc5N)nc5ccc(-c6ccccc6)nc54)cc3)CC2)n1 [Example 90, 2-((1-(4-(2-(2-Aminopyridin-3-yl)-5-phenyl-3H-imidazo[4,5-b]pyridin-3-yl)benzyl)piperidin-4-yl)amino)pyrimidine-4-carbonitrile] | < 0.015 µM |
| N#Cc1cc(NC2CCN(Cc3ccc(-n4c(-c5cccnc5N)nc5ccc(-c6ccccc6)nc54)cc3)CC2)ncn1 [Example 91, 6-((1-(4-(2-(2-Aminopyridin-3-yl)-5-phenyl-3H-imidazo[4,5-b]pyridin-3-yl)benzyl)piperidin-4-yl)amino)pyrimidine-4-carbonitrile] | < 0.015 µM |
| N#Cc1nccc(NC2CCN(Cc3ccc(-n4c(-c5cccnc5N)nc5cccnc54)cc3)CC2)n1 [Example 92, 4-((1-(4-(2-(2-Aminopyridin-3-yl)-3H-imidazo[4,5-b]pyridin-3-yl)benzyl)piperidin-4-yl)amino)pyrimidine-2-carbonitrile] | 0.015 to 0.06 µM |
| N#Cc1cncc(NC2CCN(Cc3ccc(-n4c(-c5cccnc5N)nc5ccc(-c6ccccc6)nc54)cc3)CC2)c1 [Example 93, 5-((1-(4-(2-(2-Aminopyridin-3-yl)-5-phenyl-3H-imidazo[4,5-b]pyridin-3-yl)benzyl)piperidin-4-yl)amino)nicotinonitrile] | 0.06 to 0.6 µM |
| N#Cc1ccc(N2CCN(Cc3ccc(-n4c(-c5cccnc5N)nc5ccc(-c6ccccc6)nc54)cc3)CC2)cn1 [Example 94, 5-(4-(4-(2-(2-Aminopyridin-3-yl)-5-phenyl-3H-imidazo[4,5-b]pyridin-3-yl)benzyl)piperazin-1-yl)picolinonitrile] | 0.06 to 0.6 µM |
| N#Cc1ncc(NCc2ccc(-n3c(-c4cccnc4N)nc4cccnc43)cc2)cn1 [Example 95, 5-((4-(2-(2-Aminopyridin-3-yl)-3H-imidazo[4,5-b]pyridin-3-yl)benzyl)amino)pyrimidine-2-carbonitrile] | 0.6 to 10 µM |
| N#Cc1ncc(N2CCN(Cc3ccc(-n4c(-c5cccnc5N)nc5ccc(-c6ccccc6)nc54)cc3)CC2)cn1 [Example 97, 5-(4-(4-(2-(2-aminopyridin-3-yl)-5-phenyl-3H-imidazo[4,5-b]pyridin-3-yl)benzyl)piperazin-1-yl)pyrimidine-2-carbonitrile] | 0.015 to 0.06 µM |
| N#Cc1ncccc1C(=O)NCc1ccc(-n2c(-c3cccnc3N)nc3cccnc32)cc1 [Example 98, N-(4-(2-(2-Aminopyridin-3-yl)-3H-imidazo[4,5-b]pyridin-3-yl)benzyl)-2-cyanonicotinamide] | 0.6 to 10 µM |
| N#Cc1cnccc1C(=O)NCc1ccc(-n2c(-c3cccnc3N)nc3cccnc32)cc1 [Example 99, N-(4-(2-(2-Aminopyridin-3-yl)-3H-imidazo[4,5-b]pyridin-3-yl)benzyl)-3-cyanoisonicotinamide] | 0.6 to 10 µM |
